The test has as its system Candida. The test is described as follows: Antimicrobial in-vivo activity (oral) in mouse candidosis. The arrangement: species or system Mäuse vom Typ SPF-DF1. The conditions noted are these: mice infected i.v. with Candida cells; 50 to 100 mg/kg oral, one hour before and seven hours after infection; compared with prior-art compounds; untreated survival about 5 % on day 6. On the procedure: Mäuse vom Typ SPF-DF1 wurden intravenös mit 1 bis 2 x 10^6 logarytmisch wachsenden Candida-Zellen, die in physiologischer Kochsalzlösung suspendiert waren, infiziert. Eine Stunde vor und sieben Stunden nach der Infektion werden die Tiere mit jeweils 50 bis 100 mg/kg Körpergewicht der Präparate oral behandelt.
Unbehandelte Tiere starben 3 bis 6 Tage post infektionem. Die Überlebensrate am 6. Tag post infektionem betrug bei unbehandelten Kontrolltieren etwa 5 %.
On to `CC(C)(C)C(O)C(C(O)C(Cl)(Cl)Cl)n1cncn1` (centres unmarked) [Beispiel 1, 1,1,1-Trichlor-3-(1,2,4-triazol-1-yl)-5,5-dimethyl-hexan-2,4-diol], for which the in-vivo-Wirksamkeit result is listed as “denjenigen der Verbindungen des Standes der Technik überlegen”.

With `CC(C)(C)C(O)C(C(O)C(C)(C)Cl)n1cncn1` (centres unmarked) [Beispiel 4], the in-vivo-Wirksamkeit entry is “denjenigen der Verbindungen des Standes der Technik überlegen”.

Take `CC(C)(C)C(O)C(C(O)C=C(Cl)Cl)n1cncn1` (centres unmarked) [Beispiel 6]: the in-vivo-Wirksamkeit result is “denjenigen der Verbindungen des Standes der Technik überlegen”.

For `CC(Cl)C(Cl)(Cl)C(O)C(C(O)C(C)(C)CF)n1cncn1` (centres unmarked) [Beispiel 11], the in-vivo-Wirksamkeit entry is “denjenigen der Verbindungen des Standes der Technik überlegen”.

As to `OC(c1ccc(Cl)cc1)C(C(O)C(Cl)(Cl)Cl)n1cncn1` (centres unmarked) [Beispiel 12], the in-vivo-Wirksamkeit result is “denjenigen der Verbindungen des Standes der Technik überlegen”.

As to `OC(c1ccc(Cl)cc1Cl)C(C(O)C(Cl)(Cl)Cl)n1cncn1` (centres unmarked) [Beispiel 14], the in-vivo-Wirksamkeit entry was “denjenigen der Verbindungen des Standes der Technik überlegen”.

With `OC(c1ccc(F)cc1)C(C(O)C(Cl)(Cl)Cl)n1cncn1` (centres unmarked) [Beispiel 15], the in-vivo-Wirksamkeit result is given as “denjenigen der Verbindungen des Standes der Technik überlegen”.

As for `CC(Cl)C(Cl)(Cl)C(O)C(C(O)C(C)(C)C)n1cncn1` (centres unmarked) [Beispiel 21], the in-vivo-Wirksamkeit entry is given as “denjenigen der Verbindungen des Standes der Technik überlegen”.

Values taken from patent EP0033088A2, “Antimycotic agents” (BAYER AG, priority 1980, dated 1981).
